# Measured values published in PubChem BioAssay (NCI).
#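 Dose response: 5 concentrations. Exposure: 48 h. Format: 96-well plates. Endpoint: linear interpolation; highest concentration if not reached. GI50 is the concentration that inhibits growth by half. TGI marks complete inhibition of growth.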
# System: UACC-257 melanoma
# Assay: NCI anticancer screen, dose series, 48 h
Compound,GI50,TGI
Nc1ccc(-c2nc3ccc(Cc4ccc5nc(-c6ccc(N)cc6)[nH]c5c4)cc3[nH]2)cc1,20.6 µM,45.7 µM
O=S(=O)(Nc1cc(Sc2cccc3cccnc23)c(O)c2ccccc12)c1ccccc1,1.87 µM,5.01 µM
CN(C)C(=O)[C@H](O)[C@H](Cc1ccccc1)NC(=O)c1cc2cc(Cl)ccc2[nH]1,16.2 µM,43.5 µM
CC(C)(C[C@H]1CN(S(=O)(=O)c2cccc(C(F)(F)F)c2)c2cc(-c3cc(F)cc(OC(F)F)c3)ccc2O1)C(=O)O,11.5 µM,27.3 µM
O=C(O)C1C(Br)(c2ccccc2)C1(Br)c1ccccc1 (stereo unspecified),,> 100 µM
CCSc1nc(SCC)c2cn[nH]c2n1,89 µM,> 100 µM
ClCC[N+]12CC[N+](CCCl)(CC1)C2,,> 100 µM
COc1ccc(CCN2COc3c([C@@H](C)CCC=C(C)C)ccc(C)c3C2)cc1OC,2.93 µM,10.9 µM
COc1cc(C(=O)c2cc(C)c3[nH]c4ccc(C)cc4c3c2C)cc(OC)c1OC,4.5 µM,> 100 µM
COc1cc(/C=C/c2cc(/C=C/c3ccc(O)c(OC)c3)n(C(=O)Nc3ccc(C)cc3C)n2)ccc1O,1.46 µM,5.25 µM
C=C1C(=O)OC2/C=C(\COC(C)=O)CCC(OC(C)=O)C3=CC(OC3=O)C12 (stereo unspecified),,6.65 µM
Cc1ccc2[nH]c(O)c(N=Nc3ccc(S(N)(=O)=O)cc3)c2c1,> 25 µM,> 25 µM
C/C(N=NC(=S)N(C)C)=C1\C=CC=CN1O,,> 100 µM
Cn1c(=O)c(Cc2ccccc2F)cc2cnc(NC3CCOCC3)nc21,> 25 µM,> 25 µM
CC1(C)[C@@H](OC(N)=O)[C@H]2O[C@H]2[C@]2(C=O)[C@H]3CC[C@]4(C)[C@@H](c5ccc(=O)oc5)[C@@H](Cl)C[C@]4(O)C3=CC[C@@H]12,0.0059 µM,0.0164 µM
CCCCON(OC(=O)c1ccc2ccc3cccc4ccc1c2c34)C(C)=O,60.3 µM,> 100 µM
Cc1[nH]c2ccccc2c(=O)c1CC=C(Cl)Cl,57 µM,> 100 µM
C1CCC([PH+](C2CCCCC2)C2CCCCC2[PH+](C2CCCCC2)C2CCCCC2)CC1.O=C(C1[CH-]CCCC1)C1CCCC[N-]1.[Au] (stereo unspecified),0.337 µM,3.36 µM
Clc1ccc(C=Nc2ccc3c(c2)Cc2ccccc2-3)c(Cl)c1,,> 100 µM
COc1ccc(/C=C/c2cc(OC)cc(=O)o2)cc1,,> 100 µM
O=C(/C=C\c1ccc(NCc2ccc(C(=O)O)cc2)cc1)CCl,11.4 µM,23.8 µM
O=C1CSC(c2ccc(Cl)cc2Cl)N1c1ccc(F)cc1 (stereo unspecified),20.1 µM,36.5 µM
CC(C)C[C@H](NC(=O)/C=C/Cn1ccc2ccccc2c1=O)B(O)O,2.12 µM,7.02 µM
COc1cccc2c(=O)c3c(sc12)c(N1CCNCC1)nc1ccccc13,2.09 µM,4.45 µM
COc1c(CCl)cc(-c2cc(=O)c3ccccc3s2)cc1CCl,,> 100 µM
COc1ccc(/C=C/C(=O)C(CC2CCC2)C(=O)/C=C/c2ccc(OC)c(OC)c2)cc1OC,1.86 µM,3.41 µM
CN(CCC#N)c1ccc(/C=C(\C#N)c2ccc(Br)cc2)cc1,> 100 µM,> 100 µM

# System: PC-3 prostate
# Assay: NCI anticancer screen, dose series, 48 h
Compound,GI50,TGI
Nc1ccc(-c2nc3ccc(Cc4ccc5nc(-c6ccc(N)cc6)[nH]c5c4)cc3[nH]2)cc1,4.25 µM,20.1 µM
CC(CO)(CO)NCCCCn1ccc2c1C(=O)c1c(c(O)c3ccccc3c1O)C2=O,1.52 µM,3.11 µM
O=S(=O)(Nc1cc(Sc2cccc3cccnc23)c(O)c2ccccc12)c1ccccc1,0.467 µM,13.1 µM
CN(C)C(=O)[C@H](O)[C@H](Cc1ccccc1)NC(=O)c1cc2cc(Cl)ccc2[nH]1,24.4 µM,> 89.6 µM
CC(C)(C[C@H]1CN(S(=O)(=O)c2cccc(C(F)(F)F)c2)c2cc(-c3cc(F)cc(OC(F)F)c3)ccc2O1)C(=O)O,5.04 µM,18.9 µM
O=C(O)C1C(Br)(c2ccccc2)C1(Br)c1ccccc1 (stereo unspecified),,> 100 µM
CCSc1nc(SCC)c2cn[nH]c2n1,39 µM,> 100 µM
ClCC[N+]12CC[N+](CCCl)(CC1)C2,,> 100 µM
COc1ccc(CCN2COc3c([C@@H](C)CCC=C(C)C)ccc(C)c3C2)cc1OC,1.95 µM,5.83 µM
COc1cc(C(=O)c2cc(C)c3[nH]c4ccc(C)cc4c3c2C)cc(OC)c1OC,< 0.01 µM,> 100 µM
COc1cc(/C=C/c2cc(/C=C/c3ccc(O)c(OC)c3)n(C(=O)Nc3ccc(C)cc3C)n2)ccc1O,0.379 µM,5.01 µM
C=C1C(=O)OC2/C=C(\COC(C)=O)CCC(OC(C)=O)C3=CC(OC3=O)C12 (stereo unspecified),,30.5 µM
Cc1ccc2[nH]c(O)c(N=Nc3ccc(S(N)(=O)=O)cc3)c2c1,11.9 µM,> 25 µM
C/C(N=NC(=S)N(C)C)=C1\C=CC=CN1O,,> 100 µM
Cn1c(=O)c(Cc2ccccc2F)cc2cnc(NC3CCOCC3)nc21,> 25 µM,> 25 µM
CC1(C)[C@@H](OC(N)=O)[C@H]2O[C@H]2[C@]2(C=O)[C@H]3CC[C@]4(C)[C@@H](c5ccc(=O)oc5)[C@@H](Cl)C[C@]4(O)C3=CC[C@@H]12,0.00667 µM,0.0188 µM
CCCCON(OC(=O)c1ccc2ccc3cccc4ccc1c2c34)C(C)=O,22.2 µM,56.7 µM
Cc1[nH]c2ccccc2c(=O)c1CC=C(Cl)Cl,99.9 µM,> 100 µM
C1CCC([PH+](C2CCCCC2)C2CCCCC2[PH+](C2CCCCC2)C2CCCCC2)CC1.O=C(C1[CH-]CCCC1)C1CCCC[N-]1.[Au] (stereo unspecified),0.218 µM,3.8 µM
Clc1ccc(C=Nc2ccc3c(c2)Cc2ccccc2-3)c(Cl)c1,,> 100 µM
COc1ccc(/C=C/c2cc(OC)cc(=O)o2)cc1,,> 100 µM
O=C(/C=C\c1ccc(NCc2ccc(C(=O)O)cc2)cc1)CCl,14.2 µM,28.9 µM
O=C1CSC(c2ccc(Cl)cc2Cl)N1c1ccc(F)cc1 (stereo unspecified),18.5 µM,35.5 µM
CC(C)C[C@H](NC(=O)/C=C/Cn1ccc2ccccc2c1=O)B(O)O,17.4 µM,> 100 µM
COc1cccc2c(=O)c3c(sc12)c(N1CCNCC1)nc1ccccc13,1.62 µM,3.28 µM
COc1c(CCl)cc(-c2cc(=O)c3ccccc3s2)cc1CCl,,> 100 µM
COc1ccc(/C=C/C(=O)C(CC2CCC2)C(=O)/C=C/c2ccc(OC)c(OC)c2)cc1OC,2.85 µM,> 100 µM
CCn1c(SCc2ccc(C)cc2)nnc1-c1nn(-c2ccc(Cl)cc2Cl)c(-c2ccc(Cl)cc2)c1C,0.49 µM,10.4 µM
CN(CCC#N)c1ccc(/C=C(\C#N)c2ccc(Br)cc2)cc1,> 100 µM,> 100 µM

# System: HL-60(TB) leukemia
# Assay: NCI anticancer screen, dose series, 48 h
Compound,GI50,TGI
Nc1ccc(-c2nc3ccc(Cc4ccc5nc(-c6ccc(N)cc6)[nH]c5c4)cc3[nH]2)cc1,10.4 µM,36.9 µM
CC(CO)(CO)NCCCCn1ccc2c1C(=O)c1c(c(O)c3ccccc3c1O)C2=O,2.37 µM,> 100 µM
O=S(=O)(Nc1cc(Sc2cccc3cccnc23)c(O)c2ccccc12)c1ccccc1,0.487 µM,4.69 µM
CN(C)C(=O)[C@H](O)[C@H](Cc1ccccc1)NC(=O)c1cc2cc(Cl)ccc2[nH]1,19.1 µM,54.1 µM
CC(C)(C[C@H]1CN(S(=O)(=O)c2cccc(C(F)(F)F)c2)c2cc(-c3cc(F)cc(OC(F)F)c3)ccc2O1)C(=O)O,4.82 µM,24.8 µM
O=C(O)C1C(Br)(c2ccccc2)C1(Br)c1ccccc1 (stereo unspecified),,> 100 µM
CCSc1nc(SCC)c2cn[nH]c2n1,72.4 µM,> 100 µM
ClCC[N+]12CC[N+](CCCl)(CC1)C2,,> 100 µM
COc1ccc(CCN2COc3c([C@@H](C)CCC=C(C)C)ccc(C)c3C2)cc1OC,4.11 µM,60.9 µM
COc1cc(C(=O)c2cc(C)c3[nH]c4ccc(C)cc4c3c2C)cc(OC)c1OC,< 0.01 µM,< 0.01 µM
